Experimental data as given in patent US11458153B2, “Drug delivery composition comprising a self-assembled gelator” (The Brigham and Women's Hospital, Inc., priority 2008, dated 2022).
Entries after “also recorded” stand apart in the source; their conditions may differ.

How the values were obtained:
[1] = cited from earlier work
[2] = Gelation studies with Apn-based prodrug gelators in water and organic solvents; assay type: physicochemical; parameters: key to Gelation ability: G = gel; P = precipitate; S = soluble; I = insoluble; details: for gelation in water (in words): water / aqueous solutions
Excerpt: Gelation Studies with Prodrug-Based Gelators. Gelation abilities of Apn based amphiphilic prodrugs have been investigated thoroughly in a wide range of solvents. For detailed gelation results, see Table 1, below). Typically, the required amount of gelator was placed in a glass vial and with an appropriate solvent. […] The resulting solution was slowly cooled to room temperature and gelation was visually observed. […] Despite of prolonged heating Apn-11-CH3 was not soluble in water. […] In addition, Apn-7-COOH is soluble in basic solutions (pH is more than 8).
All gels were opaque in nature and stable for several weeks.
Preparation of Gels. Typically, gelator (0.1-5 mg) and required solvent (0.1-1 mL) were placed into a 2 mL scintillation vial, which was then sealed with a screw cap. The vial was heated with shaking until the solid was completely dissolved.

[3] = Gelation ability of polyol amphiphiles in water and organic solvents; assay type: physicochemical; parameters: key: G = stable gel at room temperature; P = precipitate; Sol = soluble
Excerpt: Examples of suitable solvents include water, salt water (such as a NaCl solution), different […] such as TRISZMA buffers, and alkaline and acidic solutions. In addition to water-based solutions, the compounds can gel various aromatic and non-aromatic organic solvents, such as benzene, toluene, hexane, and acetonitrile. All the gels obtained in Table 7 were thermally reversible. Above their gelation temperature, the gels dissolved in solvent, but could be returned to their original gel state upon cooling.

[4] = test system: mesenchymal stem cells (MSCs); assay: MSC viability, trypan blue exclusion; assay type: cell-based, human; details: 250 μM, 48 hours incubation
Protocol: Cytocompatibility. The cytocompatibility of prodrugs generated from small modification of known drugs was investigated. […] To test the cyto compatibility of prodrug-based amphiphiles and bolaamphiphiles, and their effect on cell characteristics such as viability, proliferation, adhesion and cell phenotype, a series of experiments was performed with mesenchymal stem cells (MSCs). To gain more insight into the effect of modification, unmodified drug Apn was used as a control. The viability of control cells and cells treated with Apn, Apn-7-COOH and Apn-8-Apn was examined with trypan blue assay. Use of Mesenchymal stem cells is appropriate given that these systems may be used for localized release likely into connective tissues.
Mesenchymal Stem Cell Culture. Primary human mesenchymal stem cells were maintained in expansion media that consisted of 15% Fetal Bovine Serum (selected for its ability to expand MSCs), 1% (v/v) L-Glutamine, 1% (v/v) Penn-Strep, and α-MEM. All experiments were performed using MSCs at passage number 4-6.
Viability, Adhesion and Proliferation Characteristics. The viability of the cells was examined using trypan blue exclusion. […] The media was then aspirated and the cells were detached with 200 μL of cell dissociated solution (similar quantities of floating cells were observed between the groups, typically 5-10 per well). 300 μL of media was added and the total 500 μL of the cell dispersion was collected in an eppendorf tubes. From this 10 μL of cell dispersion was diluted to 1:1 with 4% trypan blue solution and cells were counted in a hemocytometer to determine the number viable (non-blue) and nonviable (blue) cells. A control for this experiment included cells treated with only phosphate buffer saline (PBS) without an amphiphile. Cell adhesion was quantified by measuring the number of adherent cells on tissue culture surfaces in 96 well plates after incubating with amphiphiles for 12 hours. For proliferation studies, 5000 cells were added to each well of a 96 well plate in 200 μL of MSC cell expansion media, and appropriate amphiphiles were then added and incubated at 37° C. and 5% CO2. Proliferation was quantified by manually tabulating the number of cells within the flask at multiple time points (1, 2, 3, 4, 6 and 8 days) with light microscopy at 10×.

[5] = test system: mesenchymal stem cells (MSCs); assay: MSC adipogenic differentiation, Oil Red O staining; assay type: cell-based, human; details: 250 μM, 23 days of induction
Protocol: (§1) Unlike typical fibroblast cell lines used for toxicity screening, cultured mesenchymal stem cells are highly sensitive to the presence of soluble factors and can often loose their capacity for multi-lineage differentiation or differentiate into non-desired lineages depending on the culture conditions. To examine the impact of the acetaminophen amphiphilic prodrugs on multi-lineage differentiation of MSCs, cells were treated with adipogenic and osteogenic induction media in presence of amphiphiles followed by respective colorimetric histological staining.
Adipogenic Differentiation. MSCs were seeded in the wells of 24 well plates, and were culture in MSC expansion media until they reach 90% confluence (note: in control samples there was no amphiphile present, whereas in experimental samples 250 μM of Apn-based amphiphile was present). Adipogenic differentiation was induced by culturing the cells for 23 days in adipogenic induction media (from Lonza—MSCs Adipogenic Single Quote kit containing h-Insulin (recombinant), L-Glutamine, Dexamethasone, Indomethacin, IBMX (3-isobuty-1-methyl-xanthine), Pen/Strep) and adipogenic maintenance media (from Lonza—MSCs Adipogenic Single Quote kit containing h-Insulin (recombinant), L-Glutamine, Pen/Strep). […] Adipogenesis was evaluated by Oil Red O staining. Following aspiration of the media, cells were washed once with PBS, and fixed in PBS with 3.7% formaldehyde for 30 min at room temperature. Following fixation cells were rinsed with distilled water for a few minutes, and incubated with isopropanol containing an Oil Red O working solution (prepared by diluting 30 mL of 0.5% isopropanol/Oil Red O solution with 20 mL of distilled water). After 45 minutes culture well were rinsed twice with distilled water and 1 mL of hematoxylin was added to each well for 1 minute followed by aspiration and washing with distilled water. The wells were viewed using an inverted phase contrast microscope.

[6] = test system: mesenchymal stem cells (MSCs); assay: MSC osteogenic differentiation, alkaline phosphatase staining; assay type: cell-based, human; details: 250 μM, 23 days
Protocol: as §1
Osteogenic Differentiation. MSCs were seeded in the wells of 24 well plates, and were culture in MSC expansion media until they reach 90% confluence (note: in control samples there was no amphiphile present, whereas in experimental samples 250 μM of Apn-based amphiphile was present). Osteogenic differentiation was induced by culturing the cells for 23 days in osteogenic induction media (from Lonza—MSCs Osteogenic Single Quote kit) containing dexamethasone, β-glycerophosphate, L-ascorbic acid-2-phosphate, and α-MEM. The media in both groups was changed every 3 days (note: each time while changing the media, 250 μM of Apn-based amphiphiles were added to maintain constant concentration). Osteogenesis was evaluated by cell membrane associated alkaline phosphatase activity. Alkaline phosphatase activity was examined after 23 days by carefully aspirating the media and washing the cells with PBS. The cells were fixed with 3.7% formaldehyde solution for 15 min at room temperature followed by rinsing with distilled water. 0.06% Red Violet LB salt solution in Tris HCl was added with distilled water containing DMF and Naphthol AS MX-PO4. The plates were incubated for 45 minutes at room temperature and then the wells were rinsed 3 times with distilled water and imaged under with inverted phase contrast microscope.

[7] = target: T1, lipase (Lipolase 100L, Type EX) (Thermomyces lanuginosus, UniProt O59952); assay: Enzyme-triggered hydrogel degradation and drug release; assay type: in vitro ADME; details: curcumin-encapsulated hydrogel, lipase, 37° C., several days
T1 construct: purchased Novozymes through Brenntag North America Lipolase 100L, Type EX
T1 sequence (O59952 23-291): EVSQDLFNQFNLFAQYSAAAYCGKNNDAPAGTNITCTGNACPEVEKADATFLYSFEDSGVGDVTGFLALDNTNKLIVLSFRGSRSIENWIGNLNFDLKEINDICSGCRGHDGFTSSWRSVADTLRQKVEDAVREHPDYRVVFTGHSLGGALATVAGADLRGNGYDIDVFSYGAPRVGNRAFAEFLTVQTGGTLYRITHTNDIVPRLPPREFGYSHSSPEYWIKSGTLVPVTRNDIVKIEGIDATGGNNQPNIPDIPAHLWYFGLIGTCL
Protocol: Encapsulation and release of curcumin was previously studied by the Ultra-Violet absorbance spectroscopy (λmax at 424 nm). Absorbance spectrum of modified Apn-7-COOH was similar to that of Apn (FIG. 6B). In this instance, enzyme-triggered single and multiple drug delivery has been carried out using two sets of hydrogel samples, i.e., hydrogels of Apn-7-COOH and Apn-8-Apn with and without curcumin. In the first set, lipase (Lipolase 100L, Type EX, lipase units 100 KLU/g) was added to the preformed hydrogel of Apn-7-COOH (2 wt %) and kept it at 37° C. which is lower than gel melting temperature. It was anticipated that lipase (esterase) would hydrolyze the ester bond of prodrug-based gelator (Apn-7-COOH) to release acetaminophen and dicarboxylic acid as the hydrogel degrades. As expected, after 48 hours the gel completely degraded and became a clear solution.
To test this further, and examine multiple (two) drugs delivery (FIGS. 6A-6E), curcumin was encapsulated in the hydrogel of Apn-7-COOH (2 wt %) and to that lipase was added and kept it at 37° C. Absorbance spectra were recorded on aliquots which were collected (after the addition of enzyme to the hydrogel) at regular intervals (FIG. 6C). […] The concentration of the enzyme used in these in vitro experiments is higher than physiological concentration of esterases (for example, physiological concentration of cholesterol esterase is 7 U/ml).
Increasing either concentration of enzyme or incubation temperature to 45° C. doubles the drug release rate, which was correlating with previous findings.
To analyze the gel degradation mechanism, another prodrug Apn-5-ether-COOH was synthesized (FIG. 2), where hydrocarbon chain (which is bearing terminal carboxylic acid) was connected to the acetaminophen through an ether bond (C—O—C) to prevent the esterolytic cleavage by lipase.

SMILES: COc1cc(C=CC(=O)CC(=O)C=Cc2ccc(O)c(OC)c2)ccc1O [curcumin, 1,7-bis(4-hydroxy-3methoxyphenyl)-1,6-heptadiene-3,5-dione]
- solubility of curcumin in water [1]: 0.03 µM

SMILES: CC(=O)Nc1ccc(OC(=O)CCCCCCCCCCCCC(=O)Oc2ccc(NC(C)=O)cc2)cc1 [Apn-14-Apn]
- Gelation ability ([2]; solvent chloroform): S
- Gelation ability ([2]; solvent ethanol): S
- Gelation ability ([2]; solvent ethyl acetate): I
- Gelation ability ([2]; solvent isopropanol): S
- Gelation ability ([2]; solvent methanol): S
- Gelation ability ([2]; solvent t-butanol): S
- Gelation ability ([2]; solvent water): G
- minimum gelation concentration ([2]; solvent water): 0.9 wt/v %
- solubility in water (in words) [2]: insoluble

SMILES: CCCCCCCCCCCCCCCC(=O)NC(CO)(CO)CO [polyol-16]
- Gelation ability ([3]; solvent 1,4-dioxane): Sol
- Gelation ability ([3]; solvent CCl4): G
- Gelation ability ([3]; solvent CH3CN): G
- Gelation ability ([3]; solvent CHCl3): Sol
- Gelation ability ([3]; solvent DMSO): Sol
- Gelation ability ([3]; solvent NaCl (40 mM)): G
- Gelation ability ([3]; solvent TRIS (50 mM)): G
- Gelation ability ([3]; solvent acetone): Sol
- Gelation ability ([3]; solvent acidic (pH < 3)): G
- Gelation ability ([3]; solvent basic (pH > 12)): G
- Gelation ability ([3]; solvent benzene): G
- Gelation ability ([3]; solvent cyclohexane): G
- Gelation ability ([3]; solvent toluene): G
- Gelation ability ([3]; solvent water): G

SMILES: CC(=O)Nc1ccc(OC(=O)CCCCCCC(=O)Oc2ccc(NC(C)=O)cc2)cc1 [Apn-8-Apn]
- Gelation ability ([2]; solvent chloroform): S
- Gelation ability ([2]; solvent ethanol): S
- Gelation ability ([2]; solvent ethyl acetate): I
- Gelation ability ([2]; solvent isopropanol): S
- Gelation ability ([2]; solvent methanol): S
- Gelation ability ([2]; solvent t-butanol): S
- Gelation ability ([2]; solvent water): G
- minimum gelation concentration ([2]; solvent water): 1.1 wt/v %
- gelation in water (in words) [2]: formed stable hydrogels
- viable cells [4]: 82%
- adipogenic differentiation, Oil Red O (ORO) staining [5]: robust capacity; also recorded: equally stained for ORO
- osteogenic differentiation, alkaline phosphatase (ALP) staining [6]: robust capacity; also recorded: equally stained for ALP

SMILES: CCCCCCCCCCCC(=O)Oc1ccc(NC(C)=O)cc1 [Apn-11-CH3]
- Gelation ability ([2]; solvent chloroform): S
- Gelation ability ([2]; solvent ethanol): G
- minimum gelation concentration ([2]; solvent ethanol): 1.5 wt/v %
- Gelation ability ([2]; solvent ethyl acetate): P
- Gelation ability ([2]; solvent isopropanol): G
- minimum gelation concentration ([2]; solvent isopropanol): 0.8 wt/v %
- Gelation ability ([2]; solvent methanol): S
- Gelation ability ([2]; solvent t-butanol): G
- minimum gelation concentration ([2]; solvent t-butanol): 0.6 wt/v %
- Gelation ability ([2]; solvent water): I
- solubility in water (in words) [2]: not soluble
- gelation in water (in words) [2]: did not gelate

SMILES: CC(=O)Nc1ccc(OC(=O)CCCCCCCCCCCCC(=O)O)cc1 [Apn-13-COOH]
- Gelation ability ([2]; solvent chloroform): S
- Gelation ability ([2]; solvent ethanol): S
- Gelation ability ([2]; solvent ethyl acetate): I
- Gelation ability ([2]; solvent isopropanol): S
- Gelation ability ([2]; solvent methanol): S
- Gelation ability ([2]; solvent t-butanol): S
- Gelation ability ([2]; solvent water): G
- minimum gelation concentration ([2]; solvent water): 0.6 wt/v %
- solubility in water (in words) [2]: sparingly soluble

SMILES: CC(=O)Nc1ccc(O)cc1 [Apn, N-(4-hydroxyphenyl)acetamide, reference compound]
- solubility in water (in words) [2]: water soluble
- viable cells [4]: 91%
- adipogenic differentiation, Oil Red O (ORO) staining [5]: robust capacity; also recorded: positive staining
- osteogenic differentiation, alkaline phosphatase (ALP) staining [6]: robust capacity; also recorded: positive staining

SMILES: CC(=O)Nc1ccc(OCCCCCC(=O)O)cc1 [Apn-5-ether-COOH]
- gelation in water (in words) [2]: gelation behavior akin to Apn-7-COOH
- state of hydrogel after incubation with lipase [7]: still intact
- curcumin release into the solution ([7]; absorption spectroscopy): prevented curcumin release
